Measurements: patent publication US9193720B2, “Pyridin-3-yl acetic acid derivatives as inhibitors of human immunodeficiency virus replication” (priority 2014, dated 2015)

The compounds below were run on NL-RLuc virus (assay: Inhibition of HIV Replication (NL-RLuc luciferase reporter virus in MT-2 cells)). Settings: Human immunodeficiency virus 1, MT2, 120 h.
Assay type: cell-based
In short: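 Replication-competent virus with Renilla luciferase in place of part of nef, made in 293T cells and titered in MT-2 cells. Infected MT-2 cells grown 5 days with serially diluted compound in RPMI 1640/10% FBS, 10 mM HEPES pH 7.55. Luciferase read-out; EC50 from median effect equation, at least 2 experiments.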
`Cc1nc(C)c([C@H](OC(C)(C)C)C(=O)O)c(N2CCC(c3nc(C(C)C)no3)CC2)c1-c1ccc(OCCc2ccc(F)cc2)cc1` [Example 73, (S)-2-(tert-butoxy)-2-(5-(4-(4-fluorophenethoxy)phenyl)-4-(4-(3-isopropyl-1,2,4-oxadiazol-5-yl)piperidin-1-yl)-2,6-dimethylpyridin-3-yl)acetic acid] showed an EC50 of 1030 nM.
With `Cc1nc(C)c([C@H](OC(C)(C)C)C(=O)O)c(N2CCC(C(F)(F)F)CC2)c1-c1ccc(OCCc2ccc(F)cc2)cc1` [Example 74, (S)-2-(tert-butoxy)-2-(5-(4-(4-fluorophenethoxy)phenyl)-2,6-dimethyl-4-(4-(trifluoromethyl)piperidin-1-yl)pyridin-3-yl)acetic acid] the EC50 was 379 nM.
Work on `CCC1(C)CCN(c2c(-c3ccc(OCCc4ccc(F)cc4)cc3)c(C)nc(C)c2[C@H](OC(C)(C)C)C(=O)O)CC1` [Example 75, (S)-2-(tert-butoxy)-2-(4-(4-ethyl-4-methylpiperidin-1-yl)-5-(4-(4-fluorophenethoxy)phenyl)-2,6-dimethylpyridin-3-yl)acetic acid] yielded an EC50 of 4 nM.
Work on `Cc1nc(C)c([C@H](OC(C)(C)C)C(=O)O)c(N2CCC(C)CC2)c1-c1ccc(OCCc2ccc(F)cc2)cc1` [Example 76, (S)-2-(tert-butoxy)-2-(5-(4-(4-fluorophenethoxy)phenyl)-2,6-dimethyl-4-(4-methylpiperidin-1-yl)pyridin-3-yl)acetic acid] yielded an EC50 of 17 nM.
In the case of `COC1(C)CCN(c2c(-c3ccc(OCCc4ccc(F)cc4)cc3)c(C)nc(C)c2[C@H](OC(C)(C)C)C(=O)O)CC1` [Example 77, (S)-2-(tert-butoxy)-2-(5-(4-(4-fluorophenethoxy)phenyl)-4-(4-methoxy-4-methylpiperidin-1-yl)-2,6-dimethylpyridin-3-yl)acetic acid], the EC50 is reported as 2 nM.
Work on `Cc1nc(C)c([C@H](OC(C)(C)C)C(=O)O)c(N2CCC(C)(C#N)CC2)c1-c1ccc(OCCc2ccc(F)cc2)cc1` [Example 78, (S)-2-(tert-butoxy)-2-(4-(4-cyano-4-methylpiperidin-1-yl)-5-(4-(4-fluorophenethoxy)phenyl)-2,6-dimethylpyridin-3-yl)acetic acid] yielded an EC50 of 4 nM.
In the case of `CC(C)=C1CCN(c2c(-c3ccc(OCCc4ccc(F)cc4)cc3)c(C)nc(C)c2[C@H](OC(C)(C)C)C(=O)O)CC1` [Example 79, (S)-2-(tert-butoxy)-2-(5-(4-(4-fluorophenethoxy)phenyl)-2,6-dimethyl-4-(4-(propan-2-ylidene)piperidin-1-yl)pyridin-3-yl)acetic acid], the EC50 is reported as 291 nM.
`Cc1nc(C)c([C@H](OC(C)(C)C)C(=O)O)c(N2CCC(Cc3ccccc3)CC2)c1-c1ccc(OCCc2ccc(F)cc2)cc1` [Example 80, (S)-2-(4-(4-benzylpiperidin-1-yl)-5-(4-(4-fluorophenethoxy)phenyl)-2,6-dimethylpyridin-3-yl)-2-(tert-butoxy)acetic acid] showed an EC50 of 1770 nM.
Work on `Cc1nc(C)c([C@H](OC(C)(C)C)C(=O)O)c(N2CCC(C)(F)CC2)c1-c1ccc(OCCc2ccc(F)cc2)cc1` [Example 81, (S)-2-(tert-butoxy)-2-(4-(4-fluoro-4-methylpiperidin-1-yl)-5-(4-(4-fluorophenethoxy)phenyl)-2,6-dimethylpyridin-3-yl)acetic acid] yielded an EC50 of 4 nM.
For `Cc1nc(C)c([C@H](OC(C)(C)C)C(=O)O)c(N2CC(C)CC(C)C2)c1-c1ccc(OCCc2ccc(F)cc2)cc1` (stereo partly shown) [Example 82], the EC50 was 5430 nM.
